# Results: paper PMC4592236, “Pathogen- and Host-Directed Antileishmanial Effects Mediated by Polyhexanide (PHMB)” (PLoS Neglected Tropical Diseases, 2015)
# Where a name gives a salt, the structure may show the parent alone. Read-outs that look alike come from different tables or passages of the source.
# Legend:
# L. major promastigotes [1] = test: AlamarBlue assay against L. major promastigotes; format: cell-based, Leishmania major; conditions: for IC50 (μM) promastigotes: Table 2, without dynasore
# Procedure: Cytotoxicities of the different compounds or formulations against mammalian cell (BMDM or 293T epithelial cells) and L. major promastigotes were determined as previously described. Briefly, 4 × 10^4 mammalian cells or 10 × 10^6 virulent L. major promastigotes (MHOM/IL/81/FE/BNI strain) in the log phase of growth were added to each well of 96-well plates and cultured with five increasing concentrations of each compound at 37°C or 27°C for 24 h, respectively. Standard antileishmanial drugs including amphotericin B (A2942), pentamidine isothionate (P0547) and paromomycin sulfate (P9297) from Sigma-Aldrich (Deisenhofen, Germany) and miltefosine (1-hexadecylphosphorylcholine) (Cayman Chemical Company, Ann Arbor, MI, USA) were used as positive controls. The AlamarBlue dye (Trinova Biochem GmbH, Giessen, Germany) was added to each well at 10% concentration and incubated for a further 48 h. The optical density (OD) was then measured by using Multiskan Ascent ELISA reader at a wavelength 550 nm and 630 nm. The OD value or % dye reduction is proportional to viable cell/parasite number and was used for IC50 calculation based on the intercept theorem.
# [2] = tested on: intracellular L. major amastigotes; test: microbe, parasite or virus in culture; format: cell-based, Leishmania major; conditions: for IC50: intracellular amastigotes in BMDM, luciferase; for IC50 (μM) amastigotes: Table 2, without dynasore, two independent experiments
# Procedure: The assay is based on bioluminescence measurement of firefly luciferase, which catalyzes the formation of light from ATP and luciferin. The virulent luciferase-transgenic (Luc-tg) L. major strain containing a firefly luciferase reporter gene was maintained by continuous passage in female BALB/c mice and was grown in 96-well blood agar cultures at 27°C, 5% CO2, and 95% humidity. A luciferase-transgenic L. major strain was used to infect BMDM according to our recently established protocol. Briefly, BMDM numbers were adjusted to 2 × 10^5, cultured in 96-well plates and incubated for 4 h to allow adherence to the surface. The promastigote number was adjusted to 3 × 10^6 parasites per ml to achieve an infection rate of 1:15. Then, infection was made by discarding the supernatant of the cultured cells and replacing it with an equal volume of complete RPMI medium containing the promastigotes' suspension. After incubating the infected BMDM (37°C, 5% CO2) for 24 h to allow full differentiation of the promastigotes into amastigotes, the medium containing the extracellular parasites was removed and the wells were washed three times with the same RPMI medium. Five serial dilutions of each substance (1:5) in the same fresh RPMI medium were added to the infected BMDM in duplicate with the appropriate controls. After further 24 h of incubation at 37°C and 5% CO2, the infected BMDM were lysed with a luciferin-containing buffer (Britelite, PerkinElmer, Germany) and luminescence was measured with a luminescence plate reader, Victor X Light 2030 luminometer (PerkinElmer). The IC50 values of the compounds against intracellular amastigotes were calculated based on the intercept theorem, as previously described.
# BMDM [3] = test: AlamarBlue cytotoxicity assay, BMDM; format: cell-based, BALB/c mice; conditions: average of 3–6 independent experiments, read-out: IC50 BMDMs
# BMDM [4] = test: Cellular uptake by BMDM (flow cytometry); format: cell-based, BALB/c mice; conditions: pre-incubation with inhibitor 30 min, then 4 h
# Procedure: PI and YO-PRO-1 dyes (Life Technologies, Darmstadt, Germany) uptake by the promastigotes was measured by MACS Quant Analyzer (Miltenyi Biotec, Bergisch Gladbach, Germany), and used to indicate membrane integrity. […] L. major promastigotes were treated with 2 μM PHMB for indicated time points and then washed at 3,000 × g for 10 min. The samples were stained by incubating with PI or YO-PRO-1 dyes for 15 min in the dark at RT according to manufacturer’s instructions. The samples were then washed and a total of 100,000 events were immediately acquired by flow cytometry. Similarly, adherent BMDM cells were allowed to take-up fluorescent PHMB (PHMB-FITC conjugate) in the presence or absence of five different pharmacological inhibitors (cytochalasin D (C8273, used at 5 μg/ml), wortmannin (W1628, used at 12.85 μg/ml), chlorpromazine hydrochloride (C8138, used at 10 μg/ml), ikarugamycin (SML0188, used at 1 μM) and dynasore (D7693, used at 25.8 μg/ml), Sigma-Aldrich, Deisenhofen, Germany). PHMB (Polyhexamethylene biguanide; CAS# 27083-27-8; alternative chemical names: polyhexanide, polyamino propylbiguanide, Mw = 2780 g/mol) was provided by the laboratory of Dr. Liam Good and by Tecrea Ltd, London UK (www.tecrea.co.uk), at stock concentrations of 1 mg/ml and 200 mg/ml. […] The data were analyzed using FlowJo software (Tree Star Inc., CA, USA).
# L. major promastigotes [5] = test: PHMB-FITC uptake into promastigotes (flow cytometry); format: cell-based, Leishmania major; conditions: PHMB-FITC 0.35 μM
# BMDM [6] = test: Cytokine production by BMDM (ELISA); format: cell-based, BALB/c mice; conditions: BMDM supernatants, 48 h
# Procedure: BMDM were generated from female BALB/c mice as described above in cell culture. 1 × 10^6 BMDM were seeded in a final volume of 0.5 ml in 24-well plates, infected with L. major promastigotes at 15:1 parasite to BMDM ratio, washed and incubated at 37°C for 30 min in complete RPMI medium containing CpG ODN (15 μg/ml). PHMB, CpG ODN or PHMB/CpG ODN polyplexes were added to the pre-activated or control cells and further incubated for 48 h. The supernatants were collected and IL-6, IL-10, IL-4 or TNF-α (Biosciences, Wiesbaden, Germany) concentrations were measured by sandwich ELISA while IL-12p70 was measured by using the IL-12p70 ELISA Ready-SET-Go kit from eBioscience according to the suppliers' instructions.
# [7] = Leishmania major, AlamarBlue, average of 3–6 independent experiments
# [8] = concentration of PHMB within polyplexes
# [9] = concentration of PHMB within polyplexes, listed as Dynasore (80 μM)
# [10] = with dynasore (80 μM), concentration of PHMB within polyplexes
# [11] = AlamarBlue, average of 3–6 independent experiments
molecule,measurement,setting,value
"C[C@@H]1[C@H](O)[C@@H](C)/C=C/C=C/C=C/C=C/C=C/C=C/C=C/[C@H](O[C@@H]2O[C@H](C)[C@@H](O)[C@H](N)[C@@H]2O)C[C@@H]2O[C@](O)(C[C@@H](O)C[C@@H](O)[C@H](O)CC[C@@H](O)C[C@@H](O)CC(=O)O[C@H]1C)C[C@H](O)[C@H]2C(=O)O [Amphotericin B, amphotericin B]",IC50,L. major promastigotes [1]; [7],0.42 ± 0.5 µM
same,IC50,[2]; Leishmania major,0.099 ± 0.05 µM
same,IC50,"BMDM [3]; Mus musculus, BMDM",> 21 µM
"O=C(N/N=C/c1ccc(O)c(O)c1)c1cc2ccccc2cc1O [Dynasore, dynasore]",IC50 (μM) promastigotes,L. major promastigotes [1]; [8],did not display cytotoxicity
same,IC50 (μM) promastigotes,L. major promastigotes [1]; [9],No activity
same,IC50 promastigotes + dynasore (μM),L. major promastigotes [1]; [10],No activity
same,IC50 (μM) amastigotes,[2]; [8],did not display cytotoxicity
same,IC50 (μM) amastigotes,[2]; [9],No activity
same,IC50 amastigotes + dynasore (μM),[2]; [10],No activity
same,inhibition of PHMB-FITC uptake by BMDM,BMDM [4],80%
same,inhibition of PHMB-FITC uptake into promastigotes,L. major promastigotes [5],more than 98%
"CCCCCCCCCCCCCCCCOP(=O)([O-])OCC[N+](C)(C)C [Miltefosine, 1-hexadecylphosphorylcholine]",IC50,L. major promastigotes [1]; [7],28.3 ± 5.2 µM
same,IC50,[2]; Leishmania major,54 ± 8.1 µM
same,IC50,"BMDM [3]; Mus musculus, BMDM",75.6 ± 10.9 µM
"NC[C@@H]1O[C@H](O[C@H]2[C@@H](O)[C@H](O[C@@H]3[C@@H](O)[C@H](N)C[C@H](N)[C@H]3O[C@H]3O[C@H](CO)[C@@H](O)[C@H](O)[C@H]3N)O[C@@H]2CO)[C@H](N)[C@@H](O)[C@@H]1O [Paromomycin, paromomycin sulfate]",IC50,L. major promastigotes [1]; [7],> 500 µM
same,IC50,[2]; Leishmania major,1500 ± 112 µM
same,IC50,"BMDM [3]; Mus musculus, BMDM",> 900 µM
"N=C(N)c1ccc(OCCCCCOc2ccc(C(=N)N)cc2)cc1 [Pentamidine, pentamidine isothionate]",IC50,L. major promastigotes [1]; [7],16.2 ± 3.1 µM
same,IC50,[2]; Leishmania major,6.38 ± 2.4 µM
same,IC50,"BMDM [3]; Mus musculus, BMDM",128 ± 24 µM
"CpG ODN: unmethylated cytosine-phosphate-guanine oligodeoxynucleotide 1668, sequence TCCATGACGTTCCTGATGCT (DNA, backbone not given here)",IC50,L. major promastigotes [1]; [11],> 150 µM
same,IC50 promastigotes,L. major promastigotes [1]; [11],did not show activity
same,IC50,[2],> 150 µM
same,IC50,BMDM [3],> 150 µM
same,"cytokine production (IL-6, IL-10, IL-12)",BMDM [6],production of all cytokines tested increased with increasing doses
